Data as given in ChEMBL document CHEMBL1201862, “PubChem BioAssay data set” (2004).
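How tested: cells in 96-well plates exposed to compound for 48 hours at five concentrations. GI50 is the concentration that inhibits growth by half.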 Calls of active or inactive are those of the source. No stated cut-off is given here; in the data, active = GI50 up to about 1.1 µM and inactive = higher.

Legend:
Experiment in all cases: NCI anticancer screen, dose series, 48 h
ACHN = test system: ACHN
SK-OV-3 = test system: SK-OV-3
CAKI-1 = test system: CAKI-1
EKVX = test system: EKVX
KM12 = test system: KM12
NCI-H226 = test system: NCI-H226
UACC-257 = test system: UACC-257
UO-31 = test system: UO-31
NCI-H460 = test system: NCI-H460
OVCAR-4 = test system: OVCAR-4
MCF7 = test system: MCF7
IGROV-1 = test system: IGROV-1
SNB-75 = test system: SNB-75
M14 = test system: M14
MDA-N = test system: MDA-N
HOP-92 = test system: HOP-92
SW-620 = test system: SW-620
CCRF-CEM = test system: CCRF-CEM
A549 = test system: A549

Structure (SMILES)	GI50 (ACHN)	GI50 (SK-OV-3)	GI50 (CAKI-1)	GI50 (EKVX)	GI50 (KM12)	GI50 (NCI-H226)	GI50 (UACC-257)	GI50 (UO-31)	GI50 (NCI-H460)	GI50 (OVCAR-4)	GI50 (MCF7)	GI50 (IGROV-1)	GI50 (SNB-75)	GI50 (M14)	GI50 (MDA-N)	GI50 (HOP-92)	GI50 (SW-620)	GI50 (CCRF-CEM)	GI50 (A549)
C=C1CCOC2(C(O)C(C)(O)CO)NC(=O)C1(O)NC2=O (stereo unspecified)	> 100 µM (inactive)	> 100 µM (inactive)	> 100 µM (inactive)	> 100 µM (inactive)	> 100 µM (inactive)	> 100 µM (inactive)	> 100 µM (inactive)	> 100 µM (inactive)	> 100 µM (inactive)	> 100 µM (inactive)	> 100 µM (inactive)	> 100 µM (inactive)	> 100 µM (inactive)	> 100 µM (inactive)	> 100 µM (inactive)	> 100 µM (inactive)	> 100 µM (inactive)	> 100 µM (inactive)	> 100 µM (inactive)
O=C1NC(=O)C(Cc2ccccc2)(c2cccnc2)N1 (stereo unspecified)	> 100 µM (inactive)	> 100 µM (inactive)	> 100 µM (inactive)	> 100 µM (inactive)	> 100 µM (inactive)	> 100 µM (inactive)	> 100 µM (inactive)	> 100 µM (inactive)	> 100 µM (inactive)	> 100 µM (inactive)	> 100 µM (inactive)	> 100 µM (inactive)	> 100 µM (inactive)	> 100 µM (inactive)	> 100 µM (inactive)	> 100 µM (inactive)	> 100 µM (inactive)	> 100 µM (inactive)	> 100 µM (inactive)
COC(=O)[C@]1(NC(=O)c2ccccc2)C[C@H]1C=O	> 100 µM (inactive)	93.8 µM (inactive)	> 100 µM (inactive)	> 100 µM (inactive)	> 61.5 µM (inactive)	46.7 µM (inactive)	> 100 µM (inactive)	> 100 µM (inactive)	15 µM (inactive)	> 100 µM (inactive)	> 100 µM (inactive)	> 100 µM (inactive)	> 42.9 µM (inactive)	> 100 µM (inactive)	> 100 µM (inactive)	> 100 µM (inactive)	> 100 µM (inactive)	21.6 µM (inactive)	> 100 µM (inactive)
CCN(CC)c1ccc2cc(C(=O)Nc3ccc(C)cc3)c(=N)oc2c1	> 100 µM (inactive)	> 100 µM (inactive)	> 100 µM (inactive)	> 100 µM (inactive)	> 100 µM (inactive)	> 100 µM (inactive)	> 100 µM (inactive)		> 100 µM (inactive)	> 100 µM (inactive)	> 100 µM (inactive)	> 100 µM (inactive)	> 100 µM (inactive)	> 100 µM (inactive)	> 100 µM (inactive)	> 100 µM (inactive)	> 100 µM (inactive)	> 100 µM (inactive)	> 100 µM (inactive)
O=C1c2cc([N+](=O)[O-])ccc2NC2C(O)c3ccccc3N12 (stereo unspecified)	24.7 µM (inactive)	17.7 µM (inactive)	21.6 µM (inactive)	0.619 µM (active)	42.7 µM (inactive)	29.2 µM (inactive)	16 µM (inactive)	25.9 µM (inactive)	26.4 µM (inactive)	19.7 µM (inactive)	17.3 µM (inactive)	24.9 µM (inactive)	20.2 µM (inactive)	47.4 µM (inactive)	69.5 µM (inactive)	23.9 µM (inactive)			35.7 µM (inactive)
c1csc(-c2nnc(C34CC5CC(CC(C5)C3)C4)o2)c1	33.3 µM (inactive)	53.1 µM (inactive)	87.1 µM (inactive)	44.1 µM (inactive)	52 µM (inactive)	29.9 µM (inactive)		3.96 µM (inactive)	39.9 µM (inactive)	34.2 µM (inactive)	< 0.01 µM (active)	31.9 µM (inactive)	32.5 µM (inactive)	37.2 µM (inactive)	37.7 µM (inactive)	29.1 µM (inactive)	45.8 µM (inactive)	21.7 µM (inactive)	39.4 µM (inactive)
CCOC(=O)CN1CCNCCN(CC(=O)OCC)CCNCC1	> 100 µM (inactive)	> 100 µM (inactive)	> 100 µM (inactive)	> 100 µM (inactive)	> 100 µM (inactive)	> 100 µM (inactive)	> 100 µM (inactive)	52.6 µM (inactive)	90.4 µM (inactive)	> 100 µM (inactive)	> 100 µM (inactive)	> 100 µM (inactive)	> 100 µM (inactive)		> 100 µM (inactive)	> 100 µM (inactive)	> 10 µM (inactive)	> 100 µM (inactive)	> 100 µM (inactive)
CCOC(=O)/C=C(/C(=O)OCC)n1ccc(=O)n(Cc2cn(COCCOC(C)=O)nn2)c1=O	14.8 µM (inactive)	> 100 µM (inactive)	4.74 µM (inactive)	16.9 µM (inactive)	15.5 µM (inactive)	33.7 µM (inactive)	19.3 µM (inactive)	18 µM (inactive)	15.6 µM (inactive)	22.9 µM (inactive)	15 µM (inactive)	18 µM (inactive)	33 µM (inactive)		50 µM (inactive)	1.53 µM (inactive)	7.05 µM (inactive)	2.14 µM (inactive)	> 100 µM (inactive)
